Experimental findings from patent US6380245B1, “Antibiotics TKR1912-I and TKR1912-II and process for producing the same” (Takara Shuzo Co., Ltd., priority 1995, dated 2002) are described below.

Series [1] concerns Aspergillus fumigatus TIMM1776. The series can be described thus: Antifungal spectrum, liquid medium dilution method. It is filed as cell-based. How it is done: (§1) The antifungal spectra of the above TKR1912-I and TKR1912-II against various microorganisms were determined. Using the liquid medium dilution method, the concentration causing a substantially complete inhibition of fungal growth was determined as minimal inhibitory concentration (μg/ml). Moreover, the minimal concentration (μg/ml) causing partial growth inhibition was determined and the results are presented in parentheses in Table 2. In the table, YNBG stands for YNBG medium comprising 0.67% of yeast nitrogen base (Difco) and 1.0% of glucose and BHI stands for BHI medium comprising brain-heart infusion bouillon (Nissui Pharmaceutical).

For series [2], the system named is Candida albicans TIMM0136. In words: Antifungal spectrum, liquid medium dilution method. The class given is cell-based. How it is done: as §1
The test system of series [3] is Candida kefyr TIMM0301. The series can be described thus: Antifungal spectrum, liquid medium dilution method. The conditions noted are these: for MIC: Kluyveromyces marxianus. It is filed as cell-based. As to the method:
as §1

For series [4], the system named is Cryptococcus neoformans TIMM0354. In words: Antifungal spectrum, liquid medium dilution method. The class given is cell-based. How it is done:
as §1

Series [5] concerns ICR mice. The series can be described thus: Toxicity after intraperitoneal administration to ICR mice. Particulars: 50 mg/kg. It is filed as in vivo.
The nature of series [6]: Solubility in solvents. It is filed as physicochemical.
The mark [7] stands for this setting: Aspergillus fumigatus TIMM1776, BHI medium.
[8] abbreviates: Candida albicans TIMM0136, YNBG medium.
[9] abbreviates: Candida kefyr TIMM0301, YNBG medium.

Each structure is given as a SMILES string. ≈ marks a conversion by molar mass, not a printed value. Where two headings read alike, the source gives them in different places. Bounds are passed on as bounds.

`CCCCCCCC/C=C/CC/C=C/C1CC(C(=O)O)C(CC(=O)O)(C(=O)OC(C(=O)O)C(CC(=O)O)C(=O)O)O1` (stereo not drawn) [TKR1912-II]: the “minimal concentration causing partial growth inhibition (in parentheses)” value is “(25) μg/ml” in series [1] (setting [7]); “(0.78) μg/ml” in series [2] (setting [8]); “(1.56) μg/ml” in series [3] (setting [9]); “(6.25) μg/ml” in series [4] (Cryptococcus neoformans TIMM0354, YNBG medium). Further, the MIC in series [1] (Aspergillus fumigatus, TIMM1776, read-out: Minimal inhibitory concentration (substantially complete inhibition of fungal growth)) was more than 100 µg/mL; in series [2] (Candida albicans, TIMM0136, read-out: Minimal inhibitory concentration (substantially complete inhibition of fungal growth)), 3.13 µg/mL (≈ 5.35 µM); in series [3] (TIMM0301, read-out: Minimal inhibitory concentration (substantially complete inhibition of fungal growth)), 3.13 µg/mL (≈ 5.35 µM); in series [4] (Cryptococcus neoformans, TIMM0354, read-out: Minimal inhibitory concentration (substantially complete inhibition of fungal growth)), more than 100 µg/mL. The toxic signs result in series [5] is given as “no toxic signs”. Further, the solubility in hexane result in series [6] is reported as “practically insoluble”. Besides, the “solubility in methanol, chloroform, and water” value in series [6] is “soluble”.

On to `CCCCCCCCCC/C=C/C1CC(C(=O)O)C(CC(=O)O)(C(=O)OC(C(=O)O)C(CC(=O)O)C(=O)O)O1` (stereo not drawn) [TKR1912-I], for which the “minimal concentration causing partial growth inhibition (in parentheses)” value in series [1] (setting [7]) is reported as “(100) μg/ml”; in series [2] (setting [8]) it was “(1.56) μg/ml”; in series [3] (setting [9]) it was “(6.25) μg/ml”. The MIC is more than 100 µg/mL in series [1] (Aspergillus fumigatus TIMM1776, BHI medium, read-out: Minimal inhibitory concentration (substantially complete inhibition of fungal growth)); 3.13 µg/mL (≈ 5.6 µM) in series [2] (Candida albicans TIMM0136, YNBG medium, read-out: Minimal inhibitory concentration (substantially complete inhibition of fungal growth)); 12.5 µg/mL (≈ 22.4 µM) in series [3] (Candida kefyr TIMM0301, YNBG medium, read-out: Minimal inhibitory concentration (substantially complete inhibition of fungal growth)); 6.25 µg/mL (≈ 11.2 µM) in series [4] (Cryptococcus neoformans TIMM0354, YNBG medium, read-out: Minimal inhibitory concentration (substantially complete inhibition of fungal growth)). Moreover, the toxic signs result in series [5] was “no toxic signs”. For the same compound, the solubility in hexane result in series [6] is reported as “practically insoluble”. Further, the “solubility in methanol, chloroform, and water” value in series [6] is “soluble”.
